Target: T1, recombinant human NSD2 (Homo sapiens, UniProt O96028)
T1 construct: (amino acids 2-end); His tag (N); host or cells: Sf9 insect cells
T1 sequence (O96028 2-1365 limits assumed): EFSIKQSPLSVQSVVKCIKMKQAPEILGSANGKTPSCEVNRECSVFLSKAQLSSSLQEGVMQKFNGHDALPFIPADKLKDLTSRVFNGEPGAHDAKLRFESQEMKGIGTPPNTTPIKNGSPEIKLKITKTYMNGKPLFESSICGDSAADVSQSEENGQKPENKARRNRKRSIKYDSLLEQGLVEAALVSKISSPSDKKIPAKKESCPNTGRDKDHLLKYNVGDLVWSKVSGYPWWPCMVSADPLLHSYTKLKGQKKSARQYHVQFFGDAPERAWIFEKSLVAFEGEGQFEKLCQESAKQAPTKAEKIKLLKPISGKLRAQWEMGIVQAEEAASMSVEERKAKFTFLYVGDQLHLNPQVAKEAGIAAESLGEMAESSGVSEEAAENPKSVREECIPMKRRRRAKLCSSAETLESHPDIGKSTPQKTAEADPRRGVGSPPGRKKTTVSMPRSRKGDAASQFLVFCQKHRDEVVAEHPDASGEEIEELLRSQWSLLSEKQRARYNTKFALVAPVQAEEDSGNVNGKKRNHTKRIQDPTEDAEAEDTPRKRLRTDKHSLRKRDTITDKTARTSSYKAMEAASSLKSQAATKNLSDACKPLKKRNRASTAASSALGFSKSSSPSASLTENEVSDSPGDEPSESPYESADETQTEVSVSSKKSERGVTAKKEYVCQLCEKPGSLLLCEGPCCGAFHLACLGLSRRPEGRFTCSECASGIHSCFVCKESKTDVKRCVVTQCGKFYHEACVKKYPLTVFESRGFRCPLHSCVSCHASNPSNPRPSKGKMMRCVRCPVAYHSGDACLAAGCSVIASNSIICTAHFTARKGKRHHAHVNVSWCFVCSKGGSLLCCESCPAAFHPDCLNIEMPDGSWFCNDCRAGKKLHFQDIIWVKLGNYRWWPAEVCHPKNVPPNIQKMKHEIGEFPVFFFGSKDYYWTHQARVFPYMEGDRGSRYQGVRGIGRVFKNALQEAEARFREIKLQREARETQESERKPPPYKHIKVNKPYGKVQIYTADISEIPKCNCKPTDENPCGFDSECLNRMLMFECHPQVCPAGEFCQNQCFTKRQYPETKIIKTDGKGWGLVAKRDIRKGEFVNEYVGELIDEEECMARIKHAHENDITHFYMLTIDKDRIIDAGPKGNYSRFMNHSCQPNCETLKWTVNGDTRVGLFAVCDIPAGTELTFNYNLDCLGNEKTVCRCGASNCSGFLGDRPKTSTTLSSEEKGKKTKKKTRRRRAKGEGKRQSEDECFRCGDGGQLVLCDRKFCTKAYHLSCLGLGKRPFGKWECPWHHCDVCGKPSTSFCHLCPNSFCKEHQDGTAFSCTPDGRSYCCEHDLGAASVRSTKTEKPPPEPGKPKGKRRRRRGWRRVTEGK
Assay: NSD2 inhibition assay (3H-SAM histone methyltransferase, oligonucleosome substrate)
Format: biochemical
Conditions: recombinant human NSD2 (aa 2-end, His tag) 2 nM, chicken oligonucleosomes 0.05 mg/ml, 3H-SAM 1 μM, 1 hour at 30° C.
Protocol: The NSDS2 inhibitory activity of a compound can be evaluated using a NSD2 inhibition assay, such as the NSD2 inhibition assay described herein below.
A reaction mixture can be prepared by adding oligonucleosomes from Chicken (0.05 mg/ml) to freshly prepared reaction buffer containing 50 mM Tris-HCl (pH 8.5), 50 mM NaCl, 5 mM MgCl2, 0.01% Brij35, 1 mM DTT, and 1% DMSO followed by the addition of recombinant human NSD2, (amino acids 2-end) with N-terminal His tag (2 nM; GenBank Accession No. NM_001042424; MW=155.5 kDa; expressed in Sf9 insect cells) and gentle mixing. The test compound is diluted in DMSO, added to the reaction mixture in nanoliter amounts (using, e.g., Acoustic Technology (Echo 550, LabCyte Inc. Sunnyvale, CA)) and incubated for 20 minutes at room temperature. The reaction may be initiated by addition of S-Adenosyl-L-[methyl-3H]methionine (3H-SAM; 1 μM), and the mixture is then incubated for 1 hour at 30° C. The reaction mixture can be delivered to filter paper and the methylated substrate quantified by scintillation counting. Data analysis may be performed using Excel and GraphPad Prism software for IC50 curve fits. For additional information on the histone methyltransferase assay, see, for example, Horiuchi K Y, et al., “Assay Development for Histone Methyltransferases,” Assay Drug Dev Technol. 2013 May; 11(4):227-36.

IC50: < 10 nM
Compound: [2H]C([2H])([2H])Oc1cc(F)c(-c2cc(Cn3cnc4c(N)ncnc43)c(N3CCC[C@](N)([C@H](O)C(F)F)C3)cn2)cc1F

Reference: US20250171445A1, “DEUTERIUM-ENRICHED PIPERIDINYL-METHYL-PURINE AMINE SALTS, CRYSTALLINE FORMS, AND THEIR USE IN TREATING MEDICAL DISEASES AND CONDITIONS” (K36 Therapeutics, Inc., priority 2023, published 2025)
